Changes are numbered by the printed parent chain.
What was measured:
muskarinen Rezeptoren = assay: Receptor binding studies (Tabelle A), radioligand displacement; conditions: Radioligand L(+)cis-[2-Methyl-³H]-N,N,N-trimethyl-1, 3-dioxolan-4-methanammonium-jodid; Organ: Cerebraler Cortex (Ratte)
Description: Die zur Synthese notwendigen Ausgangsverbindungen, die entsprechenden Hydroxyazabicycloalkane, sind aus dem Stand der Technik bekannt, [drawing 9] so z.B. für n = O aus JACS 74, 2215 (1952) (IIa), J. Org. Chem. 33, 4376 (1968) (IIb), der europäischen Patentanmeldung 307 140 (III) und J. Pharm. Science 52, 331 (1954) (IV). Ausgangsverbindungen (R = H), in denen n = 1 oder 2 bedeutet, sind durch Reduktion der entsprechenden Alkylester (X -R = COOAlkyl) erhältlich. Ausgehend von den entsprechenden Ketonen lassen sich die Thiole der allgemeinen Formeln II und III in Analogie zu dem in J. Chem. 43, 1965 beschriebenen Verfahren herstellen. Ist R in der allgemeinen Formel I ein aromatischer oder heteroaromatischer Rest, so können die Verbindungen der allgemeinen Formel I unter Anwendung der Mitsunobu Reaktion (O. Mitusunobu in Synthesis, 1, 1981, Georg Thieme Verlag, Stuttgart; J. C. S. Perkin I, Seite 462, 1975) durch Umsetzung der entsprechenden hydroxysubstituierten Reaktanden (Formel I R=H, Reagenz HOR, R=Phenyl,Heterocyclus) in Gegenwart von Azodicarbonsäurediethylester und Triphenylphospin erhalten werden. Die Umsetzung erfolgt im allgemeinen in inerten organischen Lösungsmitteln bei Raumtemperatur. Die Verbindungen der allgemeinen Formel I besitzen wertvolle pharmakologische Eigenschaften. So zeigen die Verbindungen in Bindungsstudien Affinitäten zu muskarinen Rezeptoren und muskarin-agonistische GTP-Shifts (GTP = Guanosintriphosphat). (Birdsall, N.I.M., E.C. Hulme and I.M. Stockton 1984 in T.I.P.S. Supplement, Proc. Internat. Symposium on Subtypes of Muscarinic Receptors, Ed. Hirschowitz, Hammer, Giacchetti, Klirns, Levine; Elsevier p. 4 - 8).
Die Rezeptorbindungsstudien wurden gemäß dem nachstehenden Literaturzitat ausgeführt [A. Closse, H. Bittiger, D. Langenegger und A. Wahner; Naunyn-Schmiedeberg's Arch. Pharmacol. 335, 372 - 377 (1987)].
Radioligand: L(+)cis-[2-Methyl-³H]-N,N,N-trimethyl-1, 3-dioxolan-4-methanammonium-jodid NET-647, Fa. NEN (New England Nuclear DU PONT). Organ: Cerebraler Cortex (Ratte)

Muskarinsubtypen M₃ = Muskarinsubtypen M₃ (Rattus norvegicus, UniProt P08483); assay: Binding studies at muscarinic subtypes; design: species or system Ratte; conditions: gegenüber dem Razemat und dem (-)-Enantiomer
Chain of Muskarinsubtypen M₃ (P08483 whole entry): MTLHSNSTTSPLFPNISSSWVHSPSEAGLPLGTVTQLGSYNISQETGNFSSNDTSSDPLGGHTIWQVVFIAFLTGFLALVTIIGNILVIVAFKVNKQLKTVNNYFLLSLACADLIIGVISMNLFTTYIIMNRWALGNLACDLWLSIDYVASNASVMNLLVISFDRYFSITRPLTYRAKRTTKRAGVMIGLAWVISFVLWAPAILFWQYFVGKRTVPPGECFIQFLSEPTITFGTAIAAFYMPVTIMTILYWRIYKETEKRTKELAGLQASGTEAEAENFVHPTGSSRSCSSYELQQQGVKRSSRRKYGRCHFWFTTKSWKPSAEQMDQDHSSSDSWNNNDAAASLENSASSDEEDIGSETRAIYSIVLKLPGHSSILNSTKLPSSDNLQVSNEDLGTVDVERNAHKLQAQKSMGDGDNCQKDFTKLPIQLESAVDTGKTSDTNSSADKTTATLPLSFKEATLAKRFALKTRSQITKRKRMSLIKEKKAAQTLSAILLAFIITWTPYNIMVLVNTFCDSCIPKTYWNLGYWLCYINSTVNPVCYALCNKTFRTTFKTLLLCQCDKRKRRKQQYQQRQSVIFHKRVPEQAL

Kaninchen = assay: Cholinomimetic in vivo activity by EEG (theta wave increase)
Description: Die cholinomimetische in-vivo-Wirksamkeit von (+)-(Propargyloxymethyl)-1-aza-bicyclo- [2.2.2]octan wurde am Kaninchen mittels EEG (Thetawellenzunahme) nachgewiesen.

Muskarinsubtypen M₂ = biological target: T1, Muskarinsubtypen M₂ (Rattus norvegicus, UniProt P10980); assay: Binding studies at muscarinic subtypes; design: species or system Ratte; conditions: gegenüber dem Razemat und dem (-)-Enantiomer
T1 sequence (P10980 1-466): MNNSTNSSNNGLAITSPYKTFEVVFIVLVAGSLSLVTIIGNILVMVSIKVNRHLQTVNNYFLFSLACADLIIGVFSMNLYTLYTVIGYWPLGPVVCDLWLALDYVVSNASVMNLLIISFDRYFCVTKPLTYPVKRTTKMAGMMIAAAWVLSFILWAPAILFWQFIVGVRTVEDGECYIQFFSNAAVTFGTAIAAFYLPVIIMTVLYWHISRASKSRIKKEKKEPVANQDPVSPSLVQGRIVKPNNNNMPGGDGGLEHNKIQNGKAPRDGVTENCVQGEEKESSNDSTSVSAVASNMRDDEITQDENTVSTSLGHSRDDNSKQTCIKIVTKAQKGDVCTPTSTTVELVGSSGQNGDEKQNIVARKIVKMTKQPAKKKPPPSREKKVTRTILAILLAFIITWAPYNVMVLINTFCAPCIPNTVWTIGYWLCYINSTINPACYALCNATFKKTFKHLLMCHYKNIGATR

Muskarinsubtypen M₁ = biological target: T2, Muskarinsubtypen M₁ (Rattus norvegicus, UniProt P08482); assay: Binding studies at muscarinic subtypes; design: species or system Ratte; conditions: gegenüber dem Razemat und dem (-)-Enantiomer
T2 sequence (P08482 1-460): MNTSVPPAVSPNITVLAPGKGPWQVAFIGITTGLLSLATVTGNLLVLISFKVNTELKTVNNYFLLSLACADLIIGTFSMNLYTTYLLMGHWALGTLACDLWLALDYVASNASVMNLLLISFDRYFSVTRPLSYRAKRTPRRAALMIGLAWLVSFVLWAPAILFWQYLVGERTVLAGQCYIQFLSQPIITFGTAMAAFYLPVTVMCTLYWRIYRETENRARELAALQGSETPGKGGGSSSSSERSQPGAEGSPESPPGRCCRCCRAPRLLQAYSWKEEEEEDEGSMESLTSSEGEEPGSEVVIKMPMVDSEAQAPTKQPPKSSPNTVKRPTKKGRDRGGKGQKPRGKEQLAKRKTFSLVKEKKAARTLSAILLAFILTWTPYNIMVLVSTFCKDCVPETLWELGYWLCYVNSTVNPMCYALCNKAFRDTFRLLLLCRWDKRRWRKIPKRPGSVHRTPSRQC

human-m₁-Rezeptorsubtyp = biological target: T3, human-m₁-Rezeptorsubtyp (Homo sapiens, UniProt P11229); assay: Stimulation of phosphatidylinositol turnover in CHO cell cultures; assay type: cell-based; conditions: CHO-Zellkulturen mit human-m₁-Rezeptorsubtyp; gegenüber dem Razemat und dem (-)-Enantiomer
T3 construct: expressed in transfected cells; host or cells: CHO cells
T3 sequence (P11229 1-460): T2 sequence (P08482 1-460) with V5A, S254T, S309P, K320R, G337A, V413I

`c1ccc(OC2CN3CCC2CC3)cc1` (centres unmarked) [Beispiel 9, 3-Phenoxy-1-azabicyclo[2.2.2]octan] gave a Ki (muskarinen Rezeptoren) of 89 nM.
With `C#CCOCC1CN2CCC1CC2` (single isomer, unassigned; (+)) [(+)-3-(Propargyloxymethyl)-1-azabicyclo[2.2.2]octan] the “Bindungsstudien M₃: Wirksamkeit in vitro” value (Muskarinsubtypen M₃) was “stärker wirksam”, the “cholinomimetische in-vivo-Wirksamkeit (Thetawellenzunahme)” value (Kaninchen) was “nachgewiesen” and the “Bindungsstudien M₂: Wirksamkeit in vitro” value (Muskarinsubtypen M₂) was “stärker wirksam”. For the same compound, the “Bindungsstudien M₁: Wirksamkeit in vitro” value (Muskarinsubtypen M₁) was “stärker wirksam” and the “Stimulation des Phosphatidylinositol-turnovers” value (human-m₁-Rezeptorsubtyp) was “stärker wirksam”.
`c1cncc(OC2CN3CCC2CC3)c1` (centres unmarked) [Beispiel 1] was tested, and the Ki (muskarinen Rezeptoren) was 120 nM.
Compound `c1ccc(COC2CN3CCC2CC3)cc1` (racemic) [Beispiel 4] has a Ki (muskarinen Rezeptoren) of 229 nM.

From EP0458214A1, “Bicyclic 1-azacycloalcanes” (BOEHRINGER INGELHEIM KG, priority 1990, dated 1991)
